Results: PubChem BioAssay AID248 (DTP/NCI, 2004)
Values joined by “and” are separate entries in the source; they are usually repeats but may differ in a detail not shown here. Identical values can stand only once. Inconclusive results and toxic doses are left out. Cut-off read from the data, not from the text of the source: active = T/C of 150% or more; inactive = T/C below 125%.

System: L1210 leukemia ip in BDF1 mice, survival T/C
Test: NCI In Vivo Anticancer Drug Screen. Data for tumor model L1210 Leukemia (intraperitoneal) in B6D2F1 (BDF1) mice
Details: endpoint: mean survival time, higher = longer survival
Outline: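 Each compound was tested against a transplantable tumor grown in mice. The endpoint was survival, with treated animals benchmarked against vehicle controls as a simple ratio.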

[1] = dose: 100.0 mg/kg/injection, schedule: Q01DX001 (ip), vehicle: carboxymethylcellulose (CMC)
[2] = dose: 200.0 mg/kg/injection, schedule: Q01DX001 (ip), vehicle: carboxymethylcellulose (CMC)
[3] = dose: 100.0 mg/kg/injection, schedule: Q01DX009 (ip), vehicle: saline with Tween-80
[4] = dose: 200.0 mg/kg/injection, schedule: Q01DX009 (ip), vehicle: saline with Tween-80
[5] = dose: 400.0 mg/kg/injection, schedule: Q01DX009 (ip), vehicle: saline with Tween-80

Measured: T/C

CC(=O)OCCC(COC(C)=O)n1ccc(=O)[nH]c1=O (stereo not drawn)
inactive: dose: 100.0 mg/kg/injection, schedule: Q04DX002 (ip), vehicle: saline with Tween-80 91 % of control | dose: 200.0 mg/kg/injection, schedule: Q04DX002 (ip), vehicle: saline with Tween-80 105 % of control | dose: 400.0 mg/kg/injection, schedule: Q04DX002 (ip), vehicle: saline with Tween-80 102 % of control

CCCCCCCCCCCCCCCCOc1ccccc1/C=C/C(=O)O
inactive: dose: 100.0 mg/kg/injection, schedule: Q04DX003 (ip), vehicle: Klucel (hydroxypropylcellulose) (HPC) 91 % of control | dose: 200.0 mg/kg/injection, schedule: Q04DX003 (ip), vehicle: Klucel (hydroxypropylcellulose) (HPC) 88 % of control | dose: 400.0 mg/kg/injection, schedule: Q04DX003 (ip), vehicle: Klucel (hydroxypropylcellulose) (HPC) 95 % of control

CN=C(NC)c1cccc(NC(=O)c2ccc(C(=O)Nc3cccc(C(=NC)NC)c3)cc2)c1
inactive: dose: 1.2 mg/kg/injection, schedule: Q01DX Z (ip), vehicle: carboxymethylcellulose (CMC) 93 % of control | dose: 2.5 mg/kg/injection, schedule: Q01DX Z (ip), vehicle: carboxymethylcellulose (CMC) 96 % of control | dose: 5.0 mg/kg/injection, schedule: Q01DX Z (ip), vehicle: carboxymethylcellulose (CMC) 93 % of control | dose: 10.0 mg/kg/injection, schedule: Q01DX Z (ip), vehicle: carboxymethylcellulose (CMC) 100 % of control

C=CC1(C)CCC(=O)N1 (stereo not drawn)
inactive: dose: 75.0 mg/kg/injection, schedule: Q04DX003 (ip), vehicle: other 104 % of control | dose: 150.0 mg/kg/injection, schedule: Q04DX003 (ip), vehicle: other 98 % of control | dose: 300.0 mg/kg/injection, schedule: Q04DX003 (ip), vehicle: other 98 % of control

CC1(C)C2CCC1(C)C2C=O (stereo not drawn)
inactive: dose: 100.0 mg/kg/injection, schedule: Q01DX009 (ip), vehicle: Klucel (hydroxypropylcellulose) (HPC) 96 % of control | dose: 200.0 mg/kg/injection, schedule: Q01DX009 (ip), vehicle: Klucel (hydroxypropylcellulose) (HPC) 93 % of control | dose: 400.0 mg/kg/injection, schedule: Q01DX009 (ip), vehicle: Klucel (hydroxypropylcellulose) (HPC) 96 % of control

CC1(C)OC(C(O)COC(=O)c2ccc([N+](=O)[O-])cc2)C(C(SCc2ccccc2)SCc2ccccc2)O1 (stereo not drawn)
inactive: [1] 93 % of control | [2] 89 % of control | dose: 400.0 mg/kg/injection, schedule: Q01DX001 (ip), vehicle: carboxymethylcellulose (CMC) 95 % of control

CC(=O)C1CCC2C3CCC4(C)CC(=O)CCC4(C)C3C3OC3C12C (stereo not drawn)
inactive: dose: 100.0 mg/kg/injection, schedule: Q04DX003 (sc), vehicle: steriod suspending solution 98 % of control | dose: 200.0 mg/kg/injection, schedule: Q04DX003 (sc), vehicle: steriod suspending solution 96 % of control | dose: 400.0 mg/kg/injection, schedule: Q04DX003 (sc), vehicle: steriod suspending solution 102 % of control

O=C1C2CCC(C2)C1Cl (stereo not drawn)
inactive: dose: 62.5 mg/kg/injection, schedule: Q04DX003 (ip), vehicle: saline with Tween-80 95 % of control | dose: 100.0 mg/kg/injection, schedule: Q04DX003 (ip), vehicle: saline with Tween-80 95 % of control | dose: 125.0 mg/kg/injection, schedule: Q04DX003 (ip), vehicle: saline with Tween-80 103 % of control | dose: 200.0 mg/kg/injection, schedule: Q04DX003 (ip), vehicle: saline with Tween-80 97 % of control | dose: 250.0 mg/kg/injection, schedule: Q04DX003 (ip), vehicle: saline with Tween-80 104 % of control | dose: 400.0 mg/kg/injection, schedule: Q04DX003 (ip), vehicle: saline with Tween-80 100 % of control

COc1cccc(C(=O)O)c1[N+](=O)[O-]
inactive: dose: 50.0 mg/kg/injection, schedule: Q01DX001 (ip), vehicle: other 103 % of control | dose: 100.0 mg/kg/injection, schedule: Q01DX001 (ip), vehicle: other 97 % of control | dose: 100.0 mg/kg/injection, schedule: Q04DX002 (ip), vehicle: Klucel (hydroxypropylcellulose) (HPC) 106 % of control | dose: 200.0 mg/kg/injection, schedule: Q01DX001 (ip), vehicle: other 115 % of control | dose: 200.0 mg/kg/injection, schedule: Q04DX002 (ip), vehicle: Klucel (hydroxypropylcellulose) (HPC) 95 % of control | dose: 400.0 mg/kg/injection, schedule: Q01DX001 (ip), vehicle: other 97 % of control | dose: 400.0 mg/kg/injection, schedule: Q04DX002 (ip), vehicle: Klucel (hydroxypropylcellulose) (HPC) 88 % of control

Cc1c(C)c(C(=O)O)c(C)c(C)c1C(=O)O
inactive: [3] 96 % of control | [4] 97 % of control | [5] 102 % of control

CC1C(C)C23CCC12C(=O)C(O)C12CCC1(C(O)C3=O)C(C)C2C (stereo not drawn)
inactive: dose: 50.0 mg/kg/injection, schedule: Q01DX001 (ip), vehicle: saline 100 % of control | dose: 100.0 mg/kg/injection, schedule: Q01DX001 (ip), vehicle: saline 109 % of control | dose: 200.0 mg/kg/injection, schedule: Q01DX001 (ip), vehicle: saline 111 % of control

Cc1cccc(CC(O)(CC(O)(c2ccccc2)c2ccccc2)c2ccccc2)c1 (stereo not drawn)
inactive: dose: 100.0 mg/kg/injection, schedule: Q04DX003 (ip), vehicle: acetone 96 % of control | dose: 200.0 mg/kg/injection, schedule: Q04DX003 (ip), vehicle: acetone 98 % of control | dose: 400.0 mg/kg/injection, schedule: Q04DX003 (ip), vehicle: acetone 97 % of control

CN=C(NC)c1cccc(NC(=O)c2ccc(C(=O)Nc3cccc(C(=NC)NC)c3)c(N)c2)c1
inactive: dose: 0.5 mg/kg/injection, schedule: Q01DX015 (ip), vehicle: water 102 % of control | dose: 1.0 mg/kg/injection, schedule: Q01DX015 (ip), vehicle: water 102 % of control | dose: 2.0 mg/kg/injection, schedule: Q01DX015 (ip), vehicle: water 110 % of control | dose: 3.75 mg/kg/injection, schedule: Q01DX Z (ip), vehicle: water 91 % of control | dose: 4.0 mg/kg/injection, schedule: Q01DX015 (ip), vehicle: water 102 % of control | dose: 7.5 mg/kg/injection, schedule: Q01DX Z (ip), vehicle: water 87 % of control | dose: 15.0 mg/kg/injection, schedule: Q01DX Z (ip), vehicle: water 93 % of control

CSc1ncc(COP(=S)(OCc2cnc(SC)nc2N)OCc2cnc(SC)nc2N)c(N)n1
inactive: dose: 12.5 mg/kg/injection, schedule: Q04DX003 (ip), vehicle: saline 100 % of control | dose: 25.0 mg/kg/injection, schedule: Q04DX003 (ip), vehicle: saline 103 % of control | dose: 50.0 mg/kg/injection, schedule: Q04DX003 (ip), vehicle: saline 97 % of control

O=C(Nc1ccc(Nc2ccccc2)cc1)Nc1ccccc1C(F)(F)F
inactive: dose: 50.0 mg/kg/injection, schedule: Q01DX001 (ip), vehicle: carboxymethylcellulose (CMC) 95 % of control | dose: 50.0 mg/kg/injection, schedule: Q04DX003 (ip), vehicle: carboxymethylcellulose (CMC) 100 % of control | [1] 105 % of control | dose: 100.0 mg/kg/injection, schedule: Q01DX009 (ip), vehicle: carboxymethylcellulose (CMC) 88 % of control | dose: 100.0 mg/kg/injection, schedule: Q04DX002 (ip), vehicle: carboxymethylcellulose (CMC) 102 % of control and 106 % of control | dose: 100.0 mg/kg/injection, schedule: Q04DX003 (ip), vehicle: carboxymethylcellulose (CMC) 93 % of control | [2] 92 % of control | dose: 200.0 mg/kg/injection, schedule: Q01DX009 (ip), vehicle: carboxymethylcellulose (CMC) 86 % of control and 92 % of control | dose: 200.0 mg/kg/injection, schedule: Q04DX002 (ip), vehicle: carboxymethylcellulose (CMC) 94 % of control and 97 % of control | dose: 400.0 mg/kg/injection, schedule: Q01DX009 (ip), vehicle: carboxymethylcellulose (CMC) 92 % of control | dose: 400.0 mg/kg/injection, schedule: Q04DX002 (ip), vehicle: carboxymethylcellulose (CMC) 94 % of control and 92 % of control

COC1OC(C(O)CO)C(O)C(O)C1O (stereo not drawn)
inactive: [3] 110 % of control | [4] 100 % of control | [5] 104 % of control
